Laboratory results from the NIST ThermoML archive (doi:10.1016/j.jct.2015.08.015).

Settings: Liquid, Ebulliometric method (Recirculating still)

CC=CCC#N [3-pentenenitrile]
Settings	vapor or sublimation pressure [kPa]
339.24 K	7.588
344.85 K	9.491
353.91 K	13.48
362.45 K	18.32
368.92 K	22.91
375.61 K	28.8
382.01 K	35.37
386.13 K	40.09
388.17 K	42.83
391.42 K	47.08
394.31 K	51.62
398.64 K	57.83
402.51 K	65.49
407.31 K	74.49
409.72 K	80.01
412.88 K	86.78
414.32 K	90.5
417.51 K	97.9
